Test results as given in PMC4882280 (Journal of clinical pharmacology, 2015).
Read-outs that look alike come from different tables or passages of the source.

Tests used:
[1] = postmenopausal volunteers, single oral 25 mg dose; cited from earlier work
UGT2B17 = settings: human liver microsomes UGT2B17(*2/*2) versus UGT2B17(*1/*1), P=0.023; cited from earlier work
[2] = single oral 25 mg exemestane; for concentration at 24 h: female, human, urine, po, 25 mg, C24 hr (SD), 24-hr urine concentration
[3] = for Plasma concentrations at 24 and 72 hours after exemestane administration: lower limit of quantitation 0.2 (exemestane) and 0.1 ng/ml (17-hydroexemestane); for AUC(0-t): AUC0-8, plasma; for AUC(0-inf): AUC0-∞ (SD); for Cmax: Cmax (SD); for Tmax: Tmax (SD)
[4] = with beta-glucuronidase, UGT2B17 *1/*1 (n = 8)
[5] = with beta-glucuronidase, UGT2B17 *2/*2 (n = 6)
[6] = without beta-glucuronidase, UGT2B17 *1/*1 (n = 8)
[7] = without beta-glucuronidase, UGT2B17 *2/*2 (n = 6)
[8] = plasma, range over subjects, single oral 25 mg exemestane
[9] = female, human, plasma, po, 25 mg, with beta-glucuronidase (total), UGT2B17 *1/*1 (n = 8), single oral 25 mg exemestane
[10] = female, human, plasma, po, 25 mg, with beta-glucuronidase (total), UGT2B17 *2/*2 (n = 6), single oral 25 mg exemestane
[11] = female, human, plasma, po, 25 mg, without beta-glucuronidase (free), UGT2B17 *1/*1 (n = 8), single oral 25 mg exemestane
[12] = female, human, plasma, po, 25 mg, without beta-glucuronidase (free), UGT2B17 *2/*2 (n = 6), single oral 25 mg exemestane

C=C1C[C@H]2[C@@H]3CC[C@H](O)[C@@]3(C)CC[C@@H]2[C@@]2(C)C=CC(=O)C=C12 [17-hydroexemestane]
maximal plasma concentrations (Cmax), range in previous studies [1]: 0.22 to 2.44 ng/mL
plasma concentrations over time (AUC), range in previous studies [1]: 2.46 to 20.89 ng·h/mL
lower intrinsic clearance (Vmax/Km) (UGT2B17): 36 fold
C24 hr (SD), 24-hr urine concentration [2, 4]: 2.3 (1.2) ng/ml
C24 hr (SD), 24-hr urine concentration ([2]; with beta-glucuronidase, UGT2B17 *1/*1 (n = 8), listed as 17-HEXE): 2.3 ± 1.2 ng/mL
C24 hr (SD), 24-hr urine concentration [2, 5]: 0.5 (0.3) ng/ml
C24 hr (SD), 24-hr urine concentration ([2]; with beta-glucuronidase, UGT2B17 *2/*2 (n = 6), listed as 17-HEXE): 0.5 ± 0.3 ng/mL
C24 hr (SD), 24-hr urine concentration [2, 6]: 0.4 (0.2) ng/ml
C24 hr (SD), 24-hr urine concentration [2, 7]: 0.4 (0.3) ng/ml
difference in the AUC of conjugated 17-hydroexemestane between high and poor expressers ([3]; UGT2B17 *1/*1 vs *2/*2, plasma): ~8 fold
AUC, range in our pharmacokinetic study [3, 8]: 0.7 to 26.9 ng·h/mL
Cmax, range in our pharmacokinetic study [3, 8]: 0.1 to 2.7 ng/mL
AUC0-8 ([3]; plasma, with beta-glucuronidase (+BG), UGT2B17*1/*1 carriers, single oral 25 mg exemestane): 7.3 ± 2.6 ng·h/mL
Plasma concentrations at 24 and 72 hours after exemestane administration ([3]; single oral 25 mg exemestane): below the lowest limit of quantification

C=C1C[C@@H]2[C@H](CC[C@]3(C)C(=O)CC[C@@H]23)[C@@]2(C)C=CC(=O)C=C12 [Exemestane]
maximal plasma concentrations (Cmax), range in previous studies [1]: 3.0 to 16.1 ng/mL
plasma concentrations over time (AUC), range in previous studies [1]: 25.6 to 98.1 ng·h/mL
concentration at 24 h [2, 4]: 1.7 ± 1 ng/mL
concentration at 24 h [2, 5]: 2.1 ± 1.6 ng/mL
concentration at 24 h [2, 6]: 1.9 ng/mL
concentration at 24 h [2, 7]: 2.5 ng/mL
C24 hr (SD), 24-hr urine concentration [2, 4]: 1.7 (1.0) ng/ml
C24 hr (SD), 24-hr urine concentration [2, 5]: 2.1 (1.6) ng/ml
AUC ([3]; female, human, plasma, po, 25 mg): 9.2 to 40.6 ng·h/mL
AUC(0-t) ([3]; female, human, plasma, po, 25 mg, with beta-glucuronidase (+BG), UGT2B17*1/*1 carriers, single oral 25 mg exemestane): 16.2 ± 3.5 ng·h/mL
AUC(0-t) ([3]; female, human, plasma, po, 25 mg, with beta-glucuronidase (+BG), UGT2B17*2/*2 carriers, single oral 25 mg exemestane): 15.5 ± 4.2 ng·h/mL
AUC(0-inf) [3, 9]: 19.8 ng·h/mL
AUC(0-inf) [3, 10]: 19 ng·h/mL
AUC(0-inf) [3, 11]: 22.7 ng·h/mL
AUC(0-inf) [3, 12]: 19.7 ng·h/mL
Cmax [3, 9]: 4.4 ng/mL
Cmax [3, 10]: 5.2 ng/mL
Cmax [3, 11]: 5.6 ng/mL
Cmax [3, 12]: 5.3 ng/mL
Tmax [3, 9]: 3.1 h
Tmax [3, 10]: 1.9 h
Tmax [3, 11]: 3.1 h
Tmax [3, 12]: 1.7 h
Plasma concentrations at 24 and 72 hours after exemestane administration ([3]; single oral 25 mg exemestane): below the lowest limit of quantification
